Consider three compounds from PMC3965853 (Cancer chemotherapy and pharmacology, 2014).

“And” between values parts separate entries of the source, which are not always exact repeats. Equal values may be shown once. “Also recorded” adds a separate entry of the source.

Data set [1] is described as follows: Topotecan pharmacokinetics in plasma and urine without and with erlotinib. The format is in vivo, patients. To be noted: for CLrenal, Mean (SD) / CLrenal, Median / CLrenal, Range / CL, Mean (SD) / CL, Median / CL, Range / Dosage-normalized AUC, Range: total topotecan; for CLrenal, Mean (SD) / CLrenal, Median / CLrenal, Range: n 13; for CL, Mean (SD) / CL, Median / CL, Range / Dosage-normalized AUC, Range: n 19.

Data set [2] concerns platinum refractory/resistant ovarian cancer. The note with it: lapatinib in combination with topotecan, group of 18 patients; cited from earlier work.
Data set [3] relates to relapsed/refractory ovarian cancer. The note with it: topotecan and lapatinib, 35 patients evaluable; cited from earlier work.
The next data set concerns refractory solid tumors. Put plainly: Antitumor response assessment. It is filed as in vivo, patients.
The conditions of data set [4]: 30 min iv infusion days 1 to 5 of 21-day cycle, with 150 mg oral erlotinib daily.
Where [5] appears, read: all patients n = 28, topotecan + erlotinib 150 mg.
Where [6] appears, read: topotecan 0.75 mg/m^2 + erlotinib 150 mg, n = 8.
The mark [7] stands for this setting: topotecan 1.0 mg/m^2 + erlotinib 150 mg, n = 14.
The mark [8] stands for this setting: topotecan 1.25 mg/m^2 + erlotinib 150 mg, n = 6.

Take `C#Cc1cccc(Nc2ncnc3cc(OCCOC)c(OCCOC)cc23)c1` [erlotinib]: the “effect of erlotinib on topotecan clearance / disposition” value in data set [1] (erlotinib 150 mg daily, oral) is listed as “does not affect the disposition of topotecan to a clinically significant extent; also recorded: did not have a clinically significant effect on topotecan clearance or exposure; also recorded: no significant effect on topotecan systemic clearance”.

Take `CS(=O)(=O)CCNCc1ccc(-c2ccc3ncnc(Nc4ccc(OCc5cccc(F)c5)c(Cl)c4)c3c2)o1` [lapatinib]: in data set [2], the “partial response, patients” value is listed as “One partial response” and the “patients deriving clinical benefit” value is recorded as “three patients”. For the same compound, in data set [3], the “disease stabilization, patients” value is reported as 12 and the “partial response, patients” value is listed as “Five patients”.

`CC[C@@]1(O)C(=O)OCc2c1cc1n(c2=O)Cc2cc3c(CN(C)C)c(O)ccc3nc2-1` [topotecan]: in the data set on refractory solid tumors (setting [5]), the “Best overall response: Complete response, % of patients” value is given as 0%; the “Best overall response: Not evaluable, % of patients” value was found to be 21.4%; the “Best overall response: Not evaluable, No. of Patients” value is listed as 6; the “Best overall response: Partial response, % of patients” value was 7% and 7.1%. In the data set on refractory solid tumors (setting [5]), the “Best overall response: Progressive disease, % of patients” value was 29% and 28.6%; the “Best overall response: Progressive disease, No. of Patients” value is 8; the “Best overall response: Stable disease, % of patients” value was determined as 42.9%; the “Best overall response: Stable disease, No. of Patients” value is on record as 12. In the data set with refractory solid tumors (setting [6]), the “Best overall response: Complete response, No. of Patients” value came to 0; the “Best overall response: Not evaluable, No. of Patients” value is on record as 1; the “Best overall response: Partial response, No. of Patients” value is on record as 0; the “Best overall response: Progressive disease, No. of Patients” value came out at 4. Moreover, the “Best overall response: Stable disease, No. of Patients” value in the data set with refractory solid tumors (setting [6]) is reported as 3. Moreover, in the data set with refractory solid tumors (setting [7]), the “Best overall response: Complete response, No. of Patients” value was 0; the “Best overall response: Not evaluable, No. of Patients” value is 4; the “Best overall response: Partial response, No. of Patients” value was 1; the “Best overall response: Progressive disease, No. of Patients” value stood at 4. Moreover, the “Best overall response: Stable disease, No. of Patients” value in the data set with refractory solid tumors (setting [7]) is 5. For the same compound, in the data set with refractory solid tumors (setting [8]), the “Best overall response: Complete response, No. of Patients” value is 0; the “Best overall response: Not evaluable, No. of Patients” value is reported as 1; the “Best overall response: Partial response, No. of Patients” value came to 1; the “Best overall response: Progressive disease, No. of Patients” value came to 0. Moreover, the “Best overall response: Stable disease, No. of Patients” value in the data set with refractory solid tumors (setting [8]) is listed as 4. In data set [1] (Cycle 1 (without erlotinib)), the “CLrenal, Mean (SD)” value was 4.95 (2.38) L/h/m^2; the “CLrenal, Median” value came to 4.61 L/h/m^2; the “CLrenal, Range” value is on record as 1.29–9.12 L/h/m^2; the “CL, Mean (SD)” value is listed as 9.41 (3.40) L/h/m^2. In data set [1] (Cycle 1 (without erlotinib)), the “CL, Median” value was 8.55 L/h/m^2; the “CL, Range” value was 4.11–14.7 L/h/m^2; the “Dosage-normalized AUC, Range” value lay within 35.1 to 142 ng·h/mL. For the same compound, in data set [1] (Cycle 2/3 (with erlotinib)), the “CLrenal, Mean (SD)” value is listed as 4.07 (1.87) L/h/m^2; the “CLrenal, Median” value is on record as 3.84 L/h/m^2; the “CLrenal, Range” value is listed as 1.04–7.04 L/h/m^2; the “CL, Mean (SD)” value is listed as 8.60 (3.04) L/h/m^2. In data set [1] (Cycle 2/3 (with erlotinib)), the “CL, Median” value came out at 8.57 L/h/m^2; the “CL, Range” value is given as 3.56–14.6 L/h/m^2; the “Dosage-normalized AUC, Range” value lay within 51.4 to 237.2 ng·h/mL. Also, in data set [1] (with erlotinib vs without, p = 0.17), the “mean (terminal) clearance of topotecan, lower in Cycle 2/3 compared to Cycle 1” value is reported as 8.6%. The “mean renal clearance of topotecan, decrease in Cycle 2/3 compared to Cycle 1” value in data set [1] (with erlotinib vs without, p = 0.21) was 17.8%. Also, the “mean dosage-normalized AUC of topotecan, higher in Cycle 2/3 than in Cycle 1” value in data set [1] (with erlotinib vs without, p = 0.45) stood at 8.0%. Further, in data set [4], the “maximum tolerated dosage (MTD) of topotecan” value was determined as 1.0 mg/m^2.
